Literature values as cited in US10024828B2, “Adsorbent and analysis method using same” (Hitachi High-Technologies Corporation, priority 2013, dated 2018).

Conditions: source not stated (calculated or measured value)

Row | Structure (SMILES) | log P (octanol-water partition coefficient)
1 | O=c1[nH]cc(F)c(=O)[nH]1 [5-fluorouracil] | −0.57
2 | Nc1ccn([C@@H]2O[C@H](CO)[C@@H](O)C2(F)F)c(=O)n1 [gemcitabine] | 0.14
3 | CN(Cc1cnc2nc(N)nc(N)c2n1)c1ccc(C(=O)N[C@@H](CCC(=O)O)C(=O)O)cc1 [methotrexate] | −0.91
